Calls of active or inactive are those of the source. Rule as the data show it, for most assays here: actives have a measured EC50 and inactives only a lower limit.
Assays:
[1] = biological target: T1, RNA-binding protein pos-1 (Caenorhabditis elegans, UniProt G5EF15); test: inhibitors of POS-1/mex-3 RNA binding, dose response, biochemical, fluorescence polarization (AID 1964);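 also: purified POS-1 fused to maltose binding protein made in E. coli; potency of compounds blocking POS-1 binding to fluorescent RNA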
T1 sequence (G5EF15 whole entry): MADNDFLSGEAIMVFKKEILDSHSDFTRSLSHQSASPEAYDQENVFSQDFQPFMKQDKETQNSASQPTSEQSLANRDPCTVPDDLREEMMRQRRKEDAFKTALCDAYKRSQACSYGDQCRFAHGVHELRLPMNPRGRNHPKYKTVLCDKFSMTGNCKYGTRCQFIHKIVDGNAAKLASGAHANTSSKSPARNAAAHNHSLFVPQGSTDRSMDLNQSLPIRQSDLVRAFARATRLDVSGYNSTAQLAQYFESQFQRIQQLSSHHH

[2] = biological target: T2, Zinc finger protein mex-5 (Caenorhabditis elegans, UniProt Q9XUB2); test: MEX-5/TCR-2 RNA interaction inhibitors, dose response, biochemical, C. elegans, fluorescence polarization (AID 1960)
T2 sequence (Q9XUB2 whole entry): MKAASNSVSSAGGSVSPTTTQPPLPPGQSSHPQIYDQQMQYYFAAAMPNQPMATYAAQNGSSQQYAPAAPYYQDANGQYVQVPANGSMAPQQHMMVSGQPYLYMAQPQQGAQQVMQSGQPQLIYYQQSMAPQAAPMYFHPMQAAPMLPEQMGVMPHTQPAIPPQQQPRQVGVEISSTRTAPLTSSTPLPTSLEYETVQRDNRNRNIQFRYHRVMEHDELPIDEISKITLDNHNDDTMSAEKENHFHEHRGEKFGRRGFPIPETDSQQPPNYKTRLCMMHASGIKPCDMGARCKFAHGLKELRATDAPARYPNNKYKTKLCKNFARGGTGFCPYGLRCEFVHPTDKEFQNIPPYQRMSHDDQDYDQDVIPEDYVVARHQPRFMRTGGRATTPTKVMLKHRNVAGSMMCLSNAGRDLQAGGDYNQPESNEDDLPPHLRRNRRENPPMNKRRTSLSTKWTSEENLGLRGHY

[3] = biological target: T3, Corticotropin-releasing factor receptor 2/Corticotropin-releasing factor-binding protein (Homo sapiens, UniProt P24387+Q13324); test: Dose Response confirmation of uHTS hits for small molecule antagonists of the CRF-binding protein and CRF-R2 receptor complex.; assay type: functional; conditions: read-out: IC50_Mean
T3 sequence (Q13324 whole entry): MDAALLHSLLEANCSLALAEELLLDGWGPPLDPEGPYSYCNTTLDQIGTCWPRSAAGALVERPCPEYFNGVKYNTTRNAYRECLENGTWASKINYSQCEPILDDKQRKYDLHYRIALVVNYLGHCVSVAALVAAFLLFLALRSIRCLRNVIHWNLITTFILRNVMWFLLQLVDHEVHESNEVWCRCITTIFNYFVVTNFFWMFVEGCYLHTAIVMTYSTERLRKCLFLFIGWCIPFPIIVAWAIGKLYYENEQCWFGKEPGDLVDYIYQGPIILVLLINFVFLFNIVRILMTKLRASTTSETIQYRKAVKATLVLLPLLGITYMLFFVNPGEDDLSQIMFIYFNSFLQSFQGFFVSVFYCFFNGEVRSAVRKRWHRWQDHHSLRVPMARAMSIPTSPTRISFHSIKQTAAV
T3 sequence (P24387 whole entry): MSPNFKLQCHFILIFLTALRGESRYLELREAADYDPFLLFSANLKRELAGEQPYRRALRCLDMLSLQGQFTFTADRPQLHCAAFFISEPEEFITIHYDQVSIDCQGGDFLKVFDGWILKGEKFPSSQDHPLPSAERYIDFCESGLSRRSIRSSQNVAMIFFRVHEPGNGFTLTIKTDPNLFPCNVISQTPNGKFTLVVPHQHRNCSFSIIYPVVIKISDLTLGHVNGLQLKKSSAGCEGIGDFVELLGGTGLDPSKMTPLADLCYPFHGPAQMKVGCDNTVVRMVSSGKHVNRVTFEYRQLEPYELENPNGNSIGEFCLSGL

[4] = biological target: T3, Corticotropin-releasing factor receptor 2/Corticotropin-releasing factor-binding protein; test: activators of CRF receptor 2 with binding protein – uHTS hits, confirmation (AID 602473); assay type: functional; conditions: read-out: EC50_Mean
BJ [5] = test: cytotoxicity toward BJ-TERT fibroblasts, dose response, cell-based, RAS-independent, luminescence (AID 1933); assay type: functional; conditions: Homo sapiens
BJ [6] = test: cells; assay type: functional, cell-based; conditions: Homo sapiens
[7] = cytotoxicity toward DRD oncogenic fibroblasts, dose response, cell-based, non-viral oncogenic, luminescence (AID 1934); assay type: functional; conditions: Homo sapiens
[8] = biological target: Luciferin 4-monooxygenase (Photinus pyralis, UniProt P08659); test: firefly luciferase enzyme inhibitors, dose response, biochemical, luminescence (AID 1891)
[9] = biological target: FAD-linked sulfhydryl oxidase ALR (Homo sapiens, UniProt P55789); test: inhibitors of human ALR sulfhydryl oxidase, dose response, biochemical, H2O2 detection, luminescence, cherry-pick (AID 493248)
[10] = tested on: Streptococcus sp. 'group A'; test: growth inhibition of control SK(-) GAS strain, dose response, counter-screen for streptokinase expression inhibitor project, luminescence, kanamycin, BacTiterGlo, confirmation (AID 1900); assay type: functional, organism-based
Streptokinase A = biological target: T4, Streptokinase A (Streptococcus pyogenes serotype M1, UniProt P10520); test: S. pyogenes streptokinase expression inhibitors, potency, dose response, plasminogen activation absorbance, OD405 (AID 1914); assay type: functional, Streptococcus pyogenes M1 GAS;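 also: secreted streptokinase activity via plasminogen activation per viability signal from cell pellet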
T4 sequence (P10520 whole entry): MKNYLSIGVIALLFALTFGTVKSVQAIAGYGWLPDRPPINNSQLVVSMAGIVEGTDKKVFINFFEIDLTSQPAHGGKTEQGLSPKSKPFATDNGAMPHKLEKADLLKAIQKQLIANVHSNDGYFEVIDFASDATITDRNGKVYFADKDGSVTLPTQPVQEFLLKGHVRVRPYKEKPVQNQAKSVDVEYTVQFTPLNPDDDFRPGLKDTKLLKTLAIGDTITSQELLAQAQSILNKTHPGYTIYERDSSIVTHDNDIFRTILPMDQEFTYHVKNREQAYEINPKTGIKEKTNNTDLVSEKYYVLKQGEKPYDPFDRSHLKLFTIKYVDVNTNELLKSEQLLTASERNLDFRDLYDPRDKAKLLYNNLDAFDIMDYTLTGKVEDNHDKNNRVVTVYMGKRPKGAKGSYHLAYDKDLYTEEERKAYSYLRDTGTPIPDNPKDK

Streptococcus = test: Group A Streptococcus viability loss, dose response, counter-screen for streptokinase expression inhibitor project, luminescence, BacTiterGlo (AID 1915); assay type: functional, organism-based;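 also: potency for reduction of bacterial viability or growth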
H9c2 = test: cells; assay type: functional, cell-based; conditions: Rattus norvegicus, H9c2, Myocardium;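 also: confirmatory concentration-response retest of ultra-high-throughput screening hits for modulation of myocardial damage; cell death induced by hydrogen peroxide oxidative stress; compound pretreatment for 60 min then peroxide exposure for 2 h; potency is for protecting the cells against peroxide damage rather than for killing them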
[11] = biological target: T5, Heat shock factor protein 1 (Mus musculus, UniProt P38532); test: inhibition of MG132-induced HSE-luciferase signal, confirmation, cell-based, NIH3T3, luminescence, dose retest (AID 2382); assay type: functional;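 also: NIH3T3 fibroblasts with HSF1-driven luciferase reporter stressed by proteasome inhibitor MG132; luminescence from HSF1-driven luciferase expression after 8 hours of MG132 stress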
T5 sequence (P38532 whole entry): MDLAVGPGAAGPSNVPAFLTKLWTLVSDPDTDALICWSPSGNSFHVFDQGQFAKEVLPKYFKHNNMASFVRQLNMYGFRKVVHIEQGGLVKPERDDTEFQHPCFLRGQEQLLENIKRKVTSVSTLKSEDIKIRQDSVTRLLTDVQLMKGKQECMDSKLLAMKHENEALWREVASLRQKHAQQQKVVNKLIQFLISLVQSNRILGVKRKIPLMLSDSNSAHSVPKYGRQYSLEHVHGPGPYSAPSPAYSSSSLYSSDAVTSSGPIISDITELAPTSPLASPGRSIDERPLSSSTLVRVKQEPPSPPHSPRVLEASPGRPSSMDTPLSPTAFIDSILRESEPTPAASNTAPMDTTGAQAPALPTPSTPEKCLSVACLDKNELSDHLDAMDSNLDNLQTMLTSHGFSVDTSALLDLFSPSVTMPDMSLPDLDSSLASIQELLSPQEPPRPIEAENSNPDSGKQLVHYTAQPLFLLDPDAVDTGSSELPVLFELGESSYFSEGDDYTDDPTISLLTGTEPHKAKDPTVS

[12] = biological target: T6, Ubiquitin-conjugating enzyme E2 N (Homo sapiens, UniProt P61088); assay type: functional;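 also: Dose-response confirmation in a TR-FRET assay detecting UBC13-driven polyubiquitin chain formation, inhibition measured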
T6 sequence (P61088 whole entry): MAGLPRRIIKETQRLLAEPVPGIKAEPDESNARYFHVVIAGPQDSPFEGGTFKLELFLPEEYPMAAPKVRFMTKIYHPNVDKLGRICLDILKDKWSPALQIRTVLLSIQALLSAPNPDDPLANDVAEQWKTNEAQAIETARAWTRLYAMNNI

[13] = Luminescence Cell-Based Dose Confirmation HTS to Identify Activators of 5'UTR Stem-Loop Driven Alpha-Synuclein mRNA Translation in H4 Neuroglioblastoma Cells. [Related pubchem assays: 1829 (Project Summary), 1814 (Primary HTS)]; assay type: functional
[14] = Luminescence Cell-Based Dose Response HTS to Identify Activators of Luciferase Translation or Activity in H4 […] Cells. [Related pubchem assays: 1829 (Project Summary), 1814 (Primary HTS)]; assay type: functional
H4 = test: Luminescence Cell-Based Dose Response HTS to Identify Activators of 5'UTR Stem-Loop Driven Prion Protein mRNA Translation in H4 Neuroglioblastoma Cells. [Related pubchem assays: 1829 (Project Summary), 1814 (Primary HTS)]; assay type: functional; conditions: Homo sapiens
[15] = Shn3 3'UTR reporter inhibitors, dose response, cell-based, Clone20 osteoblasts, firefly luciferase, cherry-picked (AID 624132); assay type: functional;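 also: firefly luciferase luminescence from reporter carrying the Shn3 3'UTR in osteoblasts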

Chain of FAD-linked sulfhydryl oxidase ALR (P55789 whole entry): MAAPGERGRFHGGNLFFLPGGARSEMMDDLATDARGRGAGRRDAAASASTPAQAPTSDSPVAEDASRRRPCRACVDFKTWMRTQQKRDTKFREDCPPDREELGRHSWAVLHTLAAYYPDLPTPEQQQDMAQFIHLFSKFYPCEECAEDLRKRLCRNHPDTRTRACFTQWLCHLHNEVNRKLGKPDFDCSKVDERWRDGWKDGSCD
Chain of Luciferin 4-monooxygenase (P08659 whole entry): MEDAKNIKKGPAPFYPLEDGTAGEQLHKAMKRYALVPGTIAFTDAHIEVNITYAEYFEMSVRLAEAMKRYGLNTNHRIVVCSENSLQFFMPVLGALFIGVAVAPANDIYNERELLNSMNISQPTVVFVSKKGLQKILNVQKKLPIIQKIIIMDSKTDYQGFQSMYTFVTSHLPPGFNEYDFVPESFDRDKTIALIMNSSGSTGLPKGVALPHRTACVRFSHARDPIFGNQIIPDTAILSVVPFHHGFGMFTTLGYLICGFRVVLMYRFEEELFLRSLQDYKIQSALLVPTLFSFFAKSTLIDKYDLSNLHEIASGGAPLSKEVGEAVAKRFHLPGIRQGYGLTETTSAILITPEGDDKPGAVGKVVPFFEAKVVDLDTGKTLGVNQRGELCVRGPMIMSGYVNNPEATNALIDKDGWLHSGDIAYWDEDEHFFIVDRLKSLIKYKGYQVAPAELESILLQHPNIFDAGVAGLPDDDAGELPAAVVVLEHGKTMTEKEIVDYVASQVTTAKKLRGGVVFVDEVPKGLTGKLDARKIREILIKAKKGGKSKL

CC1(C)CC(=O)C2=C(C1)OC(/N=C/N1CCCC1)=C(C#N)C2c1ccccc1 (centres undefined)
EC50 [1]: > 300 µM (not active) | EC50 [2]: > 300 µM (not active) | IC50 [3]: > 47.1 µM (inactive) | EC50 [4]: > 53 µM (inactive)

CCOC(=O)c1c(NC(=O)Nc2ccc(F)cc2)sc2c1CCN(C)C2
EC50 [1]: 27.7 µM (inconclusive) | EC50 [2]: 39.8 µM (active)

CCc1ccc(/C=C2\SC(=S)N(CCC(=O)NCCCN3CCOCC3)C2=O)cc1
EC50 (BJ [5]): 1.24 µM (active) | EC50 (BJ [6]): > 150 µM (not active) | EC50 [7]: 5.87 µM (active)

CC(=O)Oc1ccc(-c2cc3ccc(OC(C)=O)cc3oc2=O)cc1
EC50 [8]: > 112 µM (not active)

CC(=O)N(C)c1ccc(N=NC2C(=O)N(C(N)=S)N=C2C)cc1 (centres undefined)
EC50 [1]: > 300 µM (not active) | EC50 [2]: 34.6 µM (active)

CN(C)c1ccc(NC(=O)CCn2c(=S)oc3ccccc32)cc1
AC50 [9]: 14.6 µM (active)

O=C(NNC(=O)c1ccccc1OCc1ccccc1Cl)c1csc(N2CCOCC2)n1
EC50 [10]: 12.8 µM (active) | EC50 (Streptokinase A): > 150 µM (not active) | EC50 (Streptococcus): > 150 µM (not active) | IC50 (H9c2): 12.8 µM (active)

COc1ccccc1N1C(=O)NC(=O)/C(=C\c2c[nH]c3ccccc23)C1=O
EC50 [1]: > 300 µM (not active) | EC50 [2]: > 300 µM (not active)

CCN=C(S)N(C)CCc1cc2c(c(OC)c1C=C1C(=O)N(C)C(=O)N(C)C1=O)OCO2
EC50 [1]: > 300 µM (not active) | EC50 [2]: > 300 µM (not active) | EC50 [11]: > 195 µM (not active)

CC(=O)Nc1cc(C)nn1-c1nc2ccccc2s1
IC50 (H9c2): 11.6 µM (active)

CCCCn1c(-c2cccs2)nc2nc3ccccc3nc21
IC50 [12]: > 20 µM (inactive)

COc1cc(/C=N/N2C(C)CCCC2C)cc(OC)c1O (centres undefined)
AC50 [9]: 1.1 µM (active)

Cc1nc(-c2ccccn2)nc(S)c1Cl
IC50 (H9c2): > 79 µM (inactive)

CCC(=O)OC1(C)C(=O)C=C2C=C(c3ccsc3)OC=C2C1=O (centres undefined)
EC50 [1]: 34.1 µM (active) | EC50 [2]: 32.5 µM (active)

CCCOc1ccc(OCCSc2nnc(N)s2)cc1
EC50 [13]: 23.1 µM (active) | EC50 [14]: 15 µM (active) | EC50 (H4): 15.2 µM (active)

CC1CCCCC1NC(=O)c1ccc(S(=O)(=O)NNC(=O)c2ccncc2)cc1 (centres undefined)
AC50 [9]: 2.99 µM (active)

O=C1c2cccc3cccc(c23)C(=O)N1Nc1ccccc1
IC50 [12]: > 20 µM (inactive)

CCc1nnc2n1N=C(c1ccc([N+](=O)[O-])cc1)CS2
AC50 [9]: 6.01 µM (active)

CCOC(=O)COc1cccc(C2NC(=O)c3ccccc3O2)c1 (centres undefined)
IC50 (H9c2): 12.7 µM (active)

Sc1nc2ccccc2c2ccccc12
IC50 (H9c2): 31.5 µM (inactive)

O=C1C2C3C=CC(CO)(O3)C2C(=O)N1c1ccc(-c2ccccc2)cc1 (centres undefined)
EC50 [13]: > 120 µM (not active) | EC50 [14]: 8.45 µM (active) | EC50 (H4): 15.5 µM (active)

CCC(=O)N1CCN=C1SCc1cccc(C(F)(F)F)c1
AC50 [9]: 4.38 µM (active)

CCSc1nnc(NC(=O)C2Cc3ccccc3CN2S(=O)(=O)CC)s1 (centres undefined)
IC50 (H9c2): 10 µM (active)

CN(C)CC(O)COc1ccc(C(C)(C)c2ccc(OCC(O)CN(C)C)cc2)cc1 (centres undefined)
IC50 [12]: > 20 µM (inactive)

O=C(NN1C(=O)c2ccc3c4c(ccc(c24)C1=O)CC3)c1ccc(Br)cc1
IC50 [12]: > 20 µM (inactive)

O=C(CSc1ccc2nnc(-c3ccc(F)cc3)n2n1)N1CCCc2ccccc21
IC50 (H9c2): > 79 µM (inactive)

CCNC(C(=O)c1c[nH]c2c(CC)cccc12)c1ccccc1 (centres undefined)
IC50 [12]: > 20 µM (inactive)

N#Cc1ccccc1OCC(=O)Nc1nc(-c2ccccn2)cs1
IC50 (H9c2): > 79 µM (inactive)

COc1cc(/C=N/NC(=O)c2cccc(S(=O)(=O)N3CCCC3)c2)cc(OC)c1O
AC50 [9]: 0.039 µM (active)

Cc1c(O)ccc2c3c(c(=O)oc12)CCC(C)C3 (centres undefined)
IC50 (H9c2): > 79 µM (inactive)

COc1ccc(CC(=O)N(C)CC(=O)Nc2ccccc2Cl)cc1S(=O)(=O)N1CCOCC1
IC50 [12]: > 20 µM (inactive)

Cc1ccc(CN2CCN(/N=C/c3ccc(O)c(O)c3)CC2)cc1
AC50 [9]: 3.11 µM (active)

CC(=O)c1cc(-c2ccccc2)n(CC(=O)NC2CCCC2)c1C
EC50 [13]: > 120 µM (not active) | EC50 [14]: > 120 µM (not active) | EC50 (H4): > 120 µM (not active)

Nc1nnc(SCC(=O)Nc2ccc(N3CCOCC3)cc2)s1
AC50 [15]: 16.8 µM (active)
